Values joined by “and” are separate entries in the source; they are usually repeats but may differ in a detail not shown here. Identical values can stand only once. Inconclusive results and toxic doses are left out.
Tested on: L1210 leukemia ip in BDF1 mice, survival T/C
Test: NCI In Vivo Anticancer Drug Screen. Data for tumor model L1210 Leukemia (intraperitoneal) in B6D2F1 (BDF1) mice
Details: endpoint: mean survival time, higher = longer survival
Procedure, shortened: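 Tumor cells were implanted, animals were treated, and survival was followed. The result divides the treated measurement by the vehicle-control measurement.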

[1] = dose: 100.0 mg/kg/injection, schedule: Q01DX009 (ip), vehicle: saline
[2] = dose: 100.0 mg/kg/injection, schedule: Q04DX003 (ip), vehicle: saline
[3] = dose: 200.0 mg/kg/injection, schedule: Q01DX009 (ip), vehicle: saline
[4] = dose: 200.0 mg/kg/injection, schedule: Q04DX003 (ip), vehicle: saline
[5] = dose: 400.0 mg/kg/injection, schedule: Q01DX009 (ip), vehicle: saline
[6] = dose: 400.0 mg/kg/injection, schedule: Q04DX003 (ip), vehicle: saline
[7] = dose: 100.0 mg/kg/injection, schedule: Q04DX003 (ip), vehicle: saline with Tween-80
[8] = dose: 200.0 mg/kg/injection, schedule: Q04DX003 (ip), vehicle: saline with Tween-80
[9] = dose: 400.0 mg/kg/injection, schedule: Q04DX003 (ip), vehicle: saline with Tween-80
[10] = dose: 100.0 mg/kg/injection, schedule: Q01DX009 (ip), vehicle: Klucel (hydroxypropylcellulose) (HPC)
[11] = dose: 200.0 mg/kg/injection, schedule: Q01DX009 (ip), vehicle: Klucel (hydroxypropylcellulose) (HPC)
[12] = dose: 400.0 mg/kg/injection, schedule: Q01DX009 (ip), vehicle: Klucel (hydroxypropylcellulose) (HPC)
[13] = dose: 100.0 mg/kg/injection, schedule: Q04DX003 (ip), vehicle: Klucel (hydroxypropylcellulose) (HPC)
[14] = dose: 200.0 mg/kg/injection, schedule: Q04DX003 (ip), vehicle: Klucel (hydroxypropylcellulose) (HPC)
[15] = dose: 400.0 mg/kg/injection, schedule: Q04DX003 (ip), vehicle: Klucel (hydroxypropylcellulose) (HPC)
[16] = dose: 100.0 mg/kg/injection, schedule: Q01DX001 (ip), vehicle: saline
[17] = dose: 75.0 mg/kg/injection, schedule: Q01DX001 (ip), vehicle: saline
[18] = dose: 150.0 mg/kg/injection, schedule: Q01DX001 (ip), vehicle: saline
[19] = dose: 50.0 mg/kg/injection, schedule: Q01DX009 (ip), vehicle: Klucel (hydroxypropylcellulose) (HPC)

## CCNC(=O)CCC(N)C(=O)O (stereo unspecified)
[1]
  T/C: 97 % of control
[2]
  T/C: 97 % of control
[3]
  T/C: 97 % of control
[4]
  T/C: 101 % of control
[5]
  T/C: 95 % of control
[6]
  T/C: 101 % of control

## Cc1cc2ncn(C(=O)Nc3ccccc3)c2cc1C
[7]
  T/C: 92 % of control
[8]
  T/C: 87 % of control
[9]
  T/C: 90 % of control

## CCOC(=O)C(CC(=O)O)C(c1ccccc1)c1ccccc1 (stereo unspecified)
dose: 100.0 mg/kg/injection, schedule: Q01DX001 (ip), vehicle: Klucel (hydroxypropylcellulose) (HPC)
  T/C: 99 % of control
[10]
  T/C: 105 % of control and 106 % of control
dose: 100.0 mg/kg/injection, schedule: Q04DX002 (ip), vehicle: Klucel (hydroxypropylcellulose) (HPC)
  T/C: 98 % of control and 103 % of control
dose: 200.0 mg/kg/injection, schedule: Q01DX001 (ip), vehicle: Klucel (hydroxypropylcellulose) (HPC)
  T/C: 94 % of control
[11]
  T/C: 103 % of control and 105 % of control
dose: 200.0 mg/kg/injection, schedule: Q04DX002 (ip), vehicle: Klucel (hydroxypropylcellulose) (HPC)
  T/C: 98 % of control and 100 % of control
dose: 400.0 mg/kg/injection, schedule: Q01DX001 (ip), vehicle: Klucel (hydroxypropylcellulose) (HPC)
  T/C: 99 % of control
[12]
  T/C: 98 % of control and 118 % of control
dose: 400.0 mg/kg/injection, schedule: Q04DX002 (ip), vehicle: Klucel (hydroxypropylcellulose) (HPC)
  T/C: 98 % of control and 103 % of control

## CCCC[n+]1cccc(C(N)=O)c1
[2]
  T/C: 100 % of control
[4]
  T/C: 100 % of control
[6]
  T/C: 89 % of control

## CC1CNC(=O)O1 (stereo unspecified)
dose: 25.0 mg/kg/injection, schedule: Q01DX009 (ip), vehicle: saline
  T/C: 97 % of control
dose: 50.0 mg/kg/injection, schedule: Q01DX009 (ip), vehicle: saline
  T/C: 97 % of control
dose: 50.0 mg/kg/injection, schedule: Q04DX003 (ip), vehicle: saline
  T/C: 106 % of control
[1]
  T/C: 98 % of control
dose: 100.0 mg/kg/injection, schedule: Q04DX002 (ip), vehicle: saline
  T/C: 100 % of control
[2]
  T/C: 106 % of control
[3]
  T/C: 95 % of control
dose: 200.0 mg/kg/injection, schedule: Q04DX002 (ip), vehicle: saline
  T/C: 91 % of control
[4]
  T/C: 101 % of control
[5]
  T/C: 95 % of control
dose: 400.0 mg/kg/injection, schedule: Q04DX002 (ip), vehicle: saline
  T/C: 91 % of control
[6]
  T/C: 100 % of control

## CSc1nc2ccccc2s1
[10]
  T/C: 97 % of control
[13]
  T/C: 105 % of control
[11]
  T/C: 100 % of control
[14]
  T/C: 104 % of control
[15]
  T/C: 95 % of control

## CCCCCN1C(=O)NC(=O)C(Cl)C1=O (stereo unspecified)
[16]
  T/C: 89 % of control

## O=C(N/N=C/NN/C=N/NC(=O)c1ccncc1)c1ccncc1
[17]
  T/C: 101 % of control
[18]
  T/C: 100 % of control

## C=CCn1c2ccccc2c2c(C)c3cnccc3c(C)c21
dose: 25.0 mg/kg/injection, schedule: Q01DX009 (ip), vehicle: saline with Tween-80
  T/C: 97 % of control
dose: 37.5 mg/kg/injection, schedule: Q04DX003 (ip), vehicle: saline
  T/C: 111 % of control
dose: 50.0 mg/kg/injection, schedule: Q01DX009 (ip), vehicle: saline with Tween-80
  T/C: 102 % of control
dose: 50.0 mg/kg/injection, schedule: Q04DX003 (ip), vehicle: saline with Tween-80
  T/C: 119 % of control
dose: 75.0 mg/kg/injection, schedule: Q01DX009 (ip), vehicle: saline with Tween-80
  T/C: 186 % of control
dose: 75.0 mg/kg/injection, schedule: Q04DX003 (ip), vehicle: saline
  T/C: 163 % of control
dose: 100.0 mg/kg/injection, schedule: Q01DX009 (ip), vehicle: saline with Tween-80
  T/C: 111 % of control
dose: 125.0 mg/kg/injection, schedule: Q04DX003 (ip), vehicle: saline with Tween-80
  T/C: 184 % of control
dose: 150.0 mg/kg/injection, schedule: Q01DX009 (ip), vehicle: saline with Tween-80
  T/C: 172 % of control
dose: 300.0 mg/kg/injection, schedule: Q04DX003 (ip), vehicle: saline
  T/C: 156 % of control

## CCN(CC)CCOc1ccc(C=Nc2ccc(I)cc2)cc1
dose: 100.0 mg/kg/injection, schedule: Q04DX003 (ip), vehicle: other
  T/C: 97 % of control
dose: 200.0 mg/kg/injection, schedule: Q04DX003 (ip), vehicle: other
  T/C: 98 % of control
dose: 400.0 mg/kg/injection, schedule: Q04DX003 (ip), vehicle: other
  T/C: 95 % of control

## COC(=O)c1ccccc1C(=S)N1CCOCC1
[13]
  T/C: 97 % of control
[14]
  T/C: 96 % of control
[15]
  T/C: 94 % of control

## COc1ccc(/C=N\NC(=O)OC(C)(C)C)c(OC)c1OC
dose: 100.0 mg/kg/injection, schedule: Q01DX009 (ip), vehicle: acetone
  T/C: 104 % of control
[7]
  T/C: 105 % of control
dose: 200.0 mg/kg/injection, schedule: Q01DX009 (ip), vehicle: acetone
  T/C: 94 % of control
[8]
  T/C: 112 % of control
dose: 400.0 mg/kg/injection, schedule: Q01DX009 (ip), vehicle: acetone
  T/C: 96 % of control
[9]
  T/C: 112 % of control

## CN(C)CCN=Cc1[nH]c(=S)[nH]c(=O)c1Cc1ccc(Cl)cc1
[13]
  T/C: 101 % of control
[14]
  T/C: 94 % of control
[15]
  T/C: 95 % of control

## CCCCCCCC(=O)N1CCCN(C(=O)CCCCCCC)C1
dose: 30.0 mg/kg/injection, schedule: Q01DX001 (ip), vehicle: saline
  T/C: 94 % of control
[16]
  T/C: 100 % of control

## CCCCCCCCCCCCCCCCCCc1ccc(O)cc1O
[7]
  T/C: 89 % of control
[8]
  T/C: 92 % of control
[9]
  T/C: 86 % of control

## COc1cc(/C=C\[N+](=O)[O-])ccc1OCc1ccccc1
[19]
  T/C: 94 % of control
dose: 50.0 mg/kg/injection, schedule: Q04DX003 (ip), vehicle: Klucel (hydroxypropylcellulose) (HPC)
  T/C: 98 % of control
[10]
  T/C: 103 % of control
[13]
  T/C: 104 % of control
[11]
  T/C: 95 % of control
[14]
  T/C: 91 % of control

## COC(=O)Cc1cc(OC)c(OC)cc1I
[16]
  T/C: 105 % of control
[1]
  T/C: 96 % of control
dose: 200.0 mg/kg/injection, schedule: Q01DX001 (ip), vehicle: saline
  T/C: 100 % of control
[3]
  T/C: 102 % of control
dose: 400.0 mg/kg/injection, schedule: Q01DX001 (ip), vehicle: saline
  T/C: 102 % of control
[5]
  T/C: 102 % of control

## CSc1cc2c(cc1NC(C)=O)C(=O)c1ccccc1-2
dose: 100.0 mg/kg/injection, schedule: Q01DX001 (ip), vehicle: carboxymethylcellulose (CMC)
  T/C: 90 % of control
dose: 200.0 mg/kg/injection, schedule: Q01DX001 (ip), vehicle: carboxymethylcellulose (CMC)
  T/C: 106 % of control
dose: 400.0 mg/kg/injection, schedule: Q01DX001 (ip), vehicle: carboxymethylcellulose (CMC)
  T/C: 109 % of control

## CC(=O)Nc1ccnc(=O)[nH]1
[17]
  T/C: 106 % of control
[18]
  T/C: 95 % of control

## N=C(N)SCc1c2ccccc2cc2ccccc12
dose: 88.0 mg/kg/injection, schedule: Q01DX009 (ip), vehicle: saline sonified
  T/C: 102 % of control
[1]
  T/C: 102 % of control
[2]
  T/C: 104 % of control
dose: 132.0 mg/kg/injection, schedule: Q01DX009 (ip), vehicle: saline sonified
  T/C: 105 % of control
dose: 200.0 mg/kg/injection, schedule: Q01DX009 (ip), vehicle: saline sonified
  T/C: 114 % of control
[4]
  T/C: 102 % of control
[6]
  T/C: 112 % of control

## COc1cc(C)c(C2NC(=O)c3ccccc3N2)cc1C (stereo unspecified)
[19]
  T/C: 95 % of control
[10]
  T/C: 104 % of control and 109 % of control
[13]
  T/C: 97 % of control
dose: 150.0 mg/kg/injection, schedule: Q01DX009 (ip), vehicle: Klucel (hydroxypropylcellulose) (HPC)
  T/C: 109 % of control
[11]
  T/C: 100 % of control
[14]
  T/C: 97 % of control
[12]
  T/C: 107 % of control
[15]
  T/C: 103 % of control

## CC/C(=N/N=C(N)N)c1ccc(F)cc1
dose: 15.0 mg/kg/injection, schedule: Q01DX Z (oral), vehicle: carboxymethylcellulose (CMC)
  T/C: 104 % of control
dose: 30.0 mg/kg/injection, schedule: Q01DX Z (oral), vehicle: carboxymethylcellulose (CMC)
  T/C: 101 % of control
dose: 60.0 mg/kg/injection, schedule: Q01DX Z (oral), vehicle: carboxymethylcellulose (CMC)
  T/C: 98 % of control
